Values after ≈ are worked out from the molar mass of the structure shown. Like-named read-outs stand apart in the source and are kept apart here.
Legend:
NIH 3T3 fibroblast cells = assay: Cytotoxicity, MTT assay; assay type: cell-based; conditions: Mus musculus, NIH3T3, 24 h, 37 °C, 800 to 1.6 μg/mL, 50% cell viability
Method: (§1) Cytotoxicity assay. Cytotoxicity tests were performed on NIH 3T3 fibroblast cells, endothelial cells (HUVEC), macrophage (RAW264.7), liver cells (LO2), kidney cells (COS7) and enterocyte (NCM-460) using MTT assay. Cells were cultured in DMEM supplemented with 10% FBS, 5% penicillin, 2 mM L-glutamine and incubated at 37 °C in 5% CO 2. Cells were harvested and seeded onto 96-well plates at a density of 1.0 × 10^4 cells per well and incubated for 24 h. On each plate, wells containing growth medium only and cells in growth medium without any antifungal agent were used as the negative and positive control, […]
(§2) concentrations ranging from 800 to 1.6 μg/mL. Medium in each cell-containing well was replaced with 100 μL of the corresponding polymer solution, and the plates were incubated at 37 °C for 24 h. Then, the solution in each well was switched to 100 µL MTT solution (1 mg/mL) and the plate was incubated in the dark at 37 °C for 4 h. After centrifuge (to prevent the possible loss of formazan crystals) and removal of the supernatant, 100 μL DMSO was added to each well to dissolve the formed formazan under stirred for 20 min. Then 85 µL of the supernatant from each well was transferred to the corresponding well in a new plate, followed by absorbance measurement at 570 nm on a plate reader. Each antifungal agent was tested in triplicate in each assay, and the experiment was conducted at least twice on a different day. The percentage of cell viability in each test well, relative to the positive control (which defines 100%) w as calculated from [% fibroblast growth = (A polymer – Ablank)/(Acontrol – A blank) × 100]. The IC 50 value is the minimum concentration to inhibit 50% of fibroblast cell growth. All measurements were performed with three replicates.

kidney cells (COS7) = assay: Cytotoxicity, MTT assay; assay type: cell-based; conditions: Chlorocebus aethiops, COS-7, 24 h, 37 °C, 800 to 1.6 μg/mL, 50% cell viability
Method: as §1, §2

macrophage (RAW264.7) = assay: Cytotoxicity, MTT assay; assay type: cell-based; conditions: Mus musculus, 24 h, 37 °C, 800 to 1.6 μg/mL, 50% cell viability
Method: as §1, §2

liver cells (LO2) = assay: Cytotoxicity, MTT assay; assay type: cell-based; conditions: 24 h, 37 °C, 800 to 1.6 μg/mL, 50% cell viability
Method: as §1, §2

enterocyte (NCM-460) = assay: Cytotoxicity, MTT assay; assay type: cell-based; conditions: Homo sapiens, NCM460, 24 h, 37 °C, 800 to 1.6 μg/mL, 50% cell viability
Method: as §1, §2

various mammalian cells = assay: Cytotoxicity, MTT assay, summary over cell types; assay type: cell-based; conditions: HUVEC, RAW264.7, LO2, COS7, NCM‐460, 24 h, read-out: IC50 for cells other than fibroblast (range)
Method: as §1
concentrations ranging from 800 to 1.6 μg/mL. Medium in each cell-containing well was replaced with 100 μL of the corresponding polymer solution, and the plates were incubated at 37 °C for 24 h. Then, the solution in each well was switched to 100 µL MTT solution (1 mg/mL) and the plate was incubated in the dark at 37 °C for 4 h. […] Then 85 µL of the supernatant from each well was transferred to the corresponding well in a new plate, followed by absorbance measurement at 570 nm on a plate reader. […] The percentage of cell viability in each test well, relative to the positive control (which defines 100%) w as calculated from [% fibroblast growth = (A polymer – Ablank)/(Acontrol – A blank) × 100]. […]

C. neoformans = assay: MIC assay (in vitro antifungal assay); assay type: cell-based; conditions: Cryptococcus neoformans, 48 h
Method: In vitro antifungal assays. The MIC assays for C. albicans (K1, SC5314, Gu5, ATCC90028, R01, R02, R03 and R04 strains) and C. neoformans (H99, MYA737 and JEC21 strains) were conducted according to a previously described protocol. The cultured fungal cells were collected at 2.5 × 10^3 CFU/mL in RPMI 1640 medium to give the working suspension. Two- […]
plate to give 50 µL compound solution in each well. Then 50 µL of the cell suspension was added to each well. Wells containing cells in RPMI without any polymer or antifungal drug were used as drug-free controls, and wells containing RPMI medium only were used as cell-free controls. The plate was gently stirred for 10 seconds and then incubated at 30 °C. After C. albicans and C. neoformans cells were incubated for 24 h and 48 h, respectively, fungal cell growth was checked visually. […]

C. albicans (R02 strain) = assay: microbe, parasite or virus in culture; assay type: cell-based, Candida albicans; conditions: C. albicans R02; 0.5 × MIC of PDAP20 or 0.5 × MIC50 of fluconazole; 30 passages; duplicates
Method: Drug resistance studies. Drug resistance was induced by treating the C. albicans (R02 strain) repeatedly with antifungal agents. […]
albicans were tested for 30 passages of growth, which is long enough and adopted by many studies. C. albicans exposed to the 1/2 MIC concentration at the particular passage were re-grown to a logarithmic growth phrase and re-used for the subsequent passage’s MIC measurement for the same antifungal agent. Drug-resistant behavior of C. albicans was evaluated by recording the changes in the MIC compared to the original passage. All measurements were performed in duplicates. […]

C. albicans (K1 strain) = assay: Mitochondrial membrane potential (JC-1); assay type: cell-based, Candida albicans; conditions: 50 μg/mL PDAP20, 2 h, 3.0 × 10^6 CFU/mL; green = early stage of apoptosis
Method: NAC concentration without affecting the normal cell growth. Wells containing cells in RPMI and 40 mM H 2O2 was used as positive controls. Cell suspension of C. albicans (K1 strain) at 6.0 × 10^6 CFU/mL was treated with 20 μM 2,7-dichlorodi-hydrofluorescein diacetate (DCFHDA) for 20 min. Then 50 µL of the cell suspension was added to each well, except the blank control (RMPI containing DCFHDA without cells). The fluorescence intensity of the induced ROS production was measured every 30 min using a plate reader at λ ex = 485 nm and λem = 530 nm. The confocal observation of ROS production was conducted after C. albicans (K1 strain) suspension at 3.0 × 10^6 CFU/mL was incubated with 50 μg/mL CPM-PDAP 20 for 2 h. […]
Detection of mitochondrial membrane potential. Changes in mitochondrial membrane potential in C. albicans after incubation with PDAP 20 were analyzed using JC-1 as previously described. Mitochondrial membrane potential was detected with the fluorescent dye JC-1, which exists as aggregates (red) in normal cells with polarized mitochondria, whereas exists as monomers (green) in apoptotic cells with depolarized mitochondria. […]
DNA fragmentation assay. Apoptosis induced DNA fragments in C. albicans cells were analyzed using the TdT-mediated dUTP Nick-End Labeling (TUNEL) method. […]

| Compound | IC50 (NIH 3T3 fibroblast cells) [µg/mL] | IC50 (kidney cells (COS7)) [µg/mL] | IC50 (macrophage (RAW264.7)) [µg/mL] | IC50 (liver cells (LO2)) [µg/mL] | IC50 (enterocyte (NCM-460)) [µg/mL] | IC50 (various mammalian cells) [µg/mL] | MIC (C. neoformans; read-out: MIC C. neoformans H99) [µg/mL] | MIC (C. neoformans; read-out: MIC C. neoformans JEC21) [µg/mL] | MIC (C. neoformans; read-out: MIC C. neoformans MYA737) [µg/mL] | Development of drug resistance on continuous treatment (C. albicans (R02 strain)) | Mitochondrial membrane potential, JC‐1 stain (C. albicans (K1 strain)) |
| --- | --- | --- | --- | --- | --- | --- | --- | --- | --- | --- | --- |
| C[C@@H]1[C@H](O)[C@@H](C)/C=C/C=C/C=C/C=C/C=C/C=C/C=C/[C@H](O[C@@H]2O[C@H](C)[C@@H](O)[C@H](N)[C@@H]2O)C[C@@H]2O[C@](O)(C[C@@H](O)C[C@@H](O)[C@H](O)CC[C@@H](O)C[C@@H](O)CC(=O)O[C@H]1C)C[C@H](O)[C@H]2C(=O)O [AmpB, amphotericin B] | 1.6 (≈ 1.73 µM) | 25 (≈ 27.1 µM) | 128 (≈ 139 µM) | 77 (≈ 83.3 µM) | 40 (≈ 43.3 µM) | 8.8 to 128 (≈ 9.52 to 139 µM) | 1.6 (≈ 1.73 µM) | 1.6 (≈ 1.73 µM) | 1.6 (≈ 1.73 µM) |  |  |
| poly(DL‐diaminopropionic acid) [PDAP20] |  |  |  |  |  |  |  |  |  | didn't acquire resistance | cytosol green fluorescence |

Reference: publication PMC9108603, “Microbial Metabolite Inspired β‐Peptide Polymers Displaying Potent and Selective Antifungal Activity” (Advanced Science, 2022)
